In patent US7282491B2, “Prokaryotic proteasomal proteases of Mycobacterium tuberculosis (MTB) as targets for antibiotic therapy” (Cornell Research Foundation, Inc., priority 2002, dated 2007):

Key:
[1] = test system: Rv2115c and Rv2097c mutants; assay type: cell-based, Mycobacterium tuberculosis

CC(C)C[C@H](NC(=O)[C@H](Cc1cccc2ccccc12)NC(=O)N1CCOCC1)B(O)O [MLN-273, N-[4-morpholine]carbonyl-β-[1-naphthyl]-L-alanine-L-leucine boronic acid]
augmentation of the toxicity of nitrite against the Rv2115c mutant (Rv2115c-mutant Mtb): augmented the toxicity of nitrite against the Rv2115c mutant
growth of Rv2115c and Rv2097c mutants under standard culture conditions [1]: suppressed the growth of these mutants to same extent as for wt Mtb
